One series has as its target T1, mouse R2 RNR protein (Mus musculus, UniProt P11157).
T1 construct: made in house
T1 sequence (P11157 1-390): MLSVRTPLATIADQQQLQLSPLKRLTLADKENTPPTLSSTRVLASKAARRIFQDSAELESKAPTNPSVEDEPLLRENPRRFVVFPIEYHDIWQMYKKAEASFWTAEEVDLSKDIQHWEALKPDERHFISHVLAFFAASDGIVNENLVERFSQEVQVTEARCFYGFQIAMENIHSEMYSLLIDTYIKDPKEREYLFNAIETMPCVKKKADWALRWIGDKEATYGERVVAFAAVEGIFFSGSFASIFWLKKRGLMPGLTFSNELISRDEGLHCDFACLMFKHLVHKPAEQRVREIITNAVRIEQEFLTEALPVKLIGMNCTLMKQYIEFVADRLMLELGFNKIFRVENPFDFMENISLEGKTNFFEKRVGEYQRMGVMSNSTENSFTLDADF
Nature of the series: Tyrosyl radical reduction in mouse R2 RNR protein (EPR). It counts as biochemical. Particulars: 2 mM DTT. As to the method:
The time-dependent tyrosyl radical reduction in mR2 RNR by equimolar concentrations of TSCs and their respective copper(II) complexes, under reducing conditions, is shown in Figure 15. […] The favorable impact of the copper(II) coordination on the HL^2 inhibitory activity is quite obvious, when the ability to quench the tyrosyl radical by HL^2 is compared to that of 2′.
The samples contained 20 μM mR2 in 50 mM HEPES buffer, pH 7.60/100 mM KCl, 20 μM compound in 1% (v/v) DMSO/H2O, and 2 mM DTT. […]
2.6. Tyrosyl radical reduction in mouse R2 RNR protein
The tyrosyl radical reduction in mR2 protein by HL1, HL2, HL3, Cu(HL1)Cl2, [Cu(L2)Cl],
Cu(HL3)Cl2, HL1a’, HL1a’’, and HL2c´·CH3COOH was measured by EPR spectroscopy at 30 K,
on a Bruker Elexsys II E540 EPR spectrometer with an Oxford Instruments ER 4112HV helium
cryostat, as described previously.12,13 mR2 protein was expressed, purified, and iron -reconstituted
as described previously, 14 and passed through a 5 mL HiTrap desalting column (GE Healthcare)
(§1) 0.76 tyrosyl radical/polypeptide. Samples containing 20 µM mR2 in 50 mM HEPES buffer, pH
(§2) 7.50/100 mM NaCl, and 20 µM respective compound in 1% (v/v) DMSO/H2O, and 2 mM
dithiothreitol (DTT) were incubated for indicated times and quickly frozen in cold isopentane. The
same samples were used for repeated incubations at room temperature. […]
Furthermore, the intrinsic reaction coordinate (IRC) analysis was
performed to authenticate that the transition state pertains to the desired reaction coordinate. The
IRC calculations were done at the B3LYP/6-311++G(d,p) level of theory. Molecular orbitals were
drawn using Molekel software.17
3. Schemes for assignment of resonances in HL1 – HL3 and their isomers
Scheme S1. The atom numbering for the assignment of resonances in HL1 – HL3.
(1 picture or pasted object on this page, not shown here)

The test system of series [1] is Colo205. The series is described as follows: MTT cytotoxicity assay, Colo205. It counts as cell-based. Particulars: Homo sapiens, COLO 205, 72 h of exposure. As to the method: (§3) The in vitro cytotoxicity of the TSCs HL^1–HL^3, copper(II) complexes Cu(HL^1)Cl2, [Cu(L^2)Cl], and Cu(HL^3)Cl2, and oxidized TSCs HL^1a′, HL^1a″, and HL^2c′·CH3COOH was tested in the doxorubicin-sensitive Colo205 and the multidrug-resistant Colo320 human colonic adenocarcinoma cell lines as well as in normal human embryonal lung fibroblast cells (MRC-5) by the colorimetric MTT assay. […]
(§4) 2.5. In vitro cell studies
(§5) 2.5.1. Cell lines and culture conditions
(§6) All cell culture reagents were obtained from Sigma-Aldrich and plastic ware from Sarstedt
(§7) (Germany). Doxorubicin-sensitive human colonic Colo 205 and multidrug resistant
(§8) Colo 320/MDR-LRP adenocarcinoma cell lines were purchased from LGC Promochem,
(§9) Teddington, UK. The cells were cultured in Roswell Park Memorial Institute (RPMI) 1640
(§10) medium supplemented with 10% heat-inactivated fetal bovine serum, 2 mM L-glutamine, 1 mM
(§11) Na-pyruvate and 100 mM Hepes. The cell lines were incubated at 37°C, in a 5% CO2, 95% air
(§12) MRC-5 human embryonal lung fibroblast cell line (ATCC CCL-171) was purchased from LGC
(§13) Promochem, Teddington, UK. The cell line was cultured in Eagle’s Minimal Essential Medi um
(§14) (EMEM, containing 4.5 g/L glucose) supplemented with a non-essential amino acid mixture, a
(§15) selection of vitamins and 10% heat-inactivated fetal bovine serum. The cells were incubated at
(§16) 37°C, in a 5% CO2, 95% air atmosphere. All cell lines were detached with Trypsin-Versene
(§17) (EDTA) solution for 5 min at 37 °C.
(§18) The tested compounds were dissolved in DMSO using 10 mM concentration. Then stock solutions
(§19) were diluted in complete culture medium in 96-well microtiter plates, and two-fold serial dilutions
(§20) of compounds were prepared in 100 µL of RPMI 1640, horizontally. The semi-adherent colonic
(§21) adenocarcinoma cells were treated with Trypsin -Versene (EDTA) solution. They were adjusted to
(§22) a density of 1×10^4 cells in 100 µL of RPMI 1640 medium, and were added to each well, with the
(§23) exception of the medium control wells. The final volume of the wells containing compounds and
(§24) cells was 200 µL. The culture were incubated at 37 °C for 72 h; at the end of the incubation period,
(§25) 20 µL of MTT solution (from a stock solution of 5 mg/mL) were added to each well. After
(§26) incubation at 37 °C for 4 h, 100 µL of SDS solution (10% in 0.01 M HCI) were added to each well
(§27) and the plates were further incubated at 37 °C overnight. The cell growth was determined using
(§28) both methods by measuring the optical density (OD) at 450 nm (ref. 620 nm) with a Multiscan EX
(§29) ELISA reader. Inhibition of the cell growth (expressed as IC 50: inhibitory concentration that
(§30) reduces by 50% the growth of the cells exposed to the tested compounds) was determined from
(§31) the sigmoid curve where 100 – ((ODsample ‒ ODmedium control)/(ODcell control ‒ ODmedium control)) × 100
(§32) values were plotted against the logarithm of compound concentrations. […]
as §1, §2

In series [2] the test system is Colo320. The series is described as follows: MTT cytotoxicity assay, Colo320. It counts as cell-based. To be noted: Homo sapiens, COLO 320, 72 h of exposure. How it is done: as §3, §4, §5, §6, §7, §8, §9, §10, §11, §12, §13, §14, §15, §16, §17, §18, §19, §20, §21, §22, §23, §24, §25, §26, §27, §28, §29, §30, §31, §32, §1, §2
For orientation: Tetrazolium dyes change colour on reduction, which living cells bring about.

The next series has as its system MRC-5. Nature of the series: MTT cytotoxicity assay, MRC-5. To be noted: Homo sapiens, MRC5, 72 h of exposure. It counts as cell-based. As to the method: as §4, §5
All cell culture reagents were obtained from Sigma-Aldrich and plastic ware from Sarstedt […]
as §12, §13, §14, §15, §16, §17, §18, §19, §20, §21, §22, §23, §24, §25, §26, §27, §28, §29, §30, §31, §32

In the next series the test system is Colo320 cells. Nature of the series: Annexin-V-FITC/PI apoptosis induction assay (flow cytometry). Particulars: 3 h induction. The series is classed as cell-based, human. As to the method:
To gain further insights into the cytotoxic behavior of the compounds, apoptosis induction by lead compounds HL^1 and [Cu(L^2)Cl] was investigated by a flow cytometry analysis of multidrug-resistant Colo320 cells stained with Annexin-V-FITC and propidium iodide (PI).
Colo320 cells were treated at the indicated concentration of the drugs. The dual parametric dot plots that combine the Annexin-V (FL1) and PI (FL3) fluorescence show the viable cell population in the lower-left quadrant Annexin-V–/PI– (Q4), the early apoptotic cells in the lower-right quadrant Annexin-V+/PI– (Q3), and the late apoptotic and necrotic cells in the upper-right quadrant Annexin-V+/PI+ (Q2). […]
2.5.3. Mechanisms of cell death: assay for apoptosis induction
The assay was carried out for selected compounds using an Annexin V-FITC Apoptosis Detection
Kit (Cat. No. APOAF-50TST) from Sigma according to the manufacturer's instructions. The
concentration of the Colo320 cell suspension was adjusted to approximately 0.5 × 10^6 cells per
mL in RPMI medium and the cell suspension was distributed in 1 mL aliquots into a 24-well plate,
and then incubated overnight at 37 °C and 5% CO2. On the following day, the medium was
removed and replaced by 1 mL RPMI medium containing the compounds except the control
samples. Colo320 cells were incubated in the presence of the compounds at 4 and 8 μM (HL1), or
0.25 and 0.50 μM (Cu(HL2)Cl2) in the 24-well plate at 37 °C for 3 h, and 12H-
controls. After the incubation period the samples were washed with PBS and fresh RPMI medium
was added to the samples. The cells were incubated overnight at 37 °C and 5% CO2. The next day,
200 μL 0.25% Trypsin (Trypsin-Versen) was added to the samples until cells appeared detached
followed by the addition of 400 μL of RPMI medium supplemented with 10% bovine serum. The
cells were collected in Eppendorf tubes and centrifuged at 2000 g for 2 min. The harvested cells
were resuspended in fresh serum free RPMI medium culture medium. After this step, the apoptosis
assay was carried out according to the instructions of the manufacturer. The fluorescence was
analyzed immediately using a ParTec CyFlow flow cytometer (Partec GmbH, Münster, Germany). […]
For orientation: Flow cytometry measures light scatter and fluorescence of single cells or particles in a stream.

Series [3] deals with Colo320. Details: method as in doi:10.1039/D0NJ01070G. Particulars: 72 h of exposure; ref [77]; cited from earlier work.
Series [4] concerns Colo205. Further details: method as in doi:10.1039/D0NJ01070G. To be noted: 72 h of exposure; ref [77]; cited from earlier work.
On the set-up of series [5]: method as in earlier work. Particulars: cited from earlier work.
The conditions of series [6]: pH 7.4; cited from earlier work.
Series [7] relates to SW480, MES-SA, MES-SA/Dx5, HL60, 41M, SK-BR-3. Further details: method as in PMID 32336116, PMID 22189939, PMID 31250199. Particulars: several human cancer cells; ref [36],[58],[80]; read-out: IC50 values reported; cited from earlier work.

Read-outs that look alike come from different tables or passages of the source.

The IC50 is the concentration that gives 50% inhibition.

As to `CC(=NNc1nc2cc(C)c(O)c(C)c2s1)c1ccccn1` [HL^2c′·CH3COOH], the “tyrosyl radical reduction (comparison in words)” value at mouse R2 RNR protein (20 μM compound) is reported as “as potent as HL^3”. Besides, the IC50 with Colo205 [1] was 2.73 ± 0.059 µM; with Colo320 [2], 0.188 ± 0.041 µM; in the series with MRC-5, 2.15 ± 0.1 µM.
With `c1ccc2c(c1)Nc1c(ccc3ccccc13)S2` [M627, 12H-Benzophenothiazine, reference compound], in the series with Colo320 cells (10 µM), the “Cell death % Q1” value is 4.59%; the “Early apoptosis % Q3” value was 12.4%; the “Late apoptosis and necrosis % Q2” value is given as 31.5%. Further, in the series with Colo320 cells (20 µM), the “Cell death % Q1” value turned out to be 7.85%; the “Early apoptosis % Q3” value came to 11.1%; the “Late apoptosis and necrosis % Q2” value is on record as 26.1%.
Regarding `N.N.[Cl][Pt][Cl]` [cisplatin, reference compound], in the series on Colo320 cells (15 µM), the “Cell death % Q1” value is listed as 1.64%; the “Early apoptosis % Q3” value is listed as 1.68%; the “Late apoptosis and necrosis % Q2” value is 2.24%. In the series on Colo320 cells (30 µM), the “Cell death % Q1” value is listed as 0.79%; the “Early apoptosis % Q3” value is listed as 4.90%; the “Late apoptosis and necrosis % Q2” value was 4.07%.
`COc1cccc2c1C(=O)c1c(O)c3c(c(O)c1C2=O)C[C@@](O)(C(=O)CO)C[C@@H]3O[C@H]1C[C@H](N)[C@H](O)[C@H](C)O1` [doxorubicin]: the figures for the half-inhibitory concentration (IC50) in the series on Colo320 [3] and in the series on Colo205 [4] were 3.12 µM and 3.28 µM, respectively.
Take `NC(=O)NO` [hydroxyurea]: the redox potential entry in series [5] was “+0.724 V”.
Turning to `NC(=S)N/N=C/c1ncccc1N` [triapine, 3-aminopyridine-2-carboxaldehyde TSC, reference compound], the “mR2 inhibition potency order” value at mouse R2 RNR protein (equimolar 20 μM compound and mR2) is “HL^1 ≈ triapine > HL^3 > HL^2”. Besides, the results for the concentration for half-maximal inhibition (IC50) (in the series on Colo205 [1]; in the series on Colo320 [2]; in series [7]) were 3.34 ± 0.12 µM, 4.21 ± 0.46 µM and 0.4 to 2.6 µM, respectively. In [6], the “log D7.4” value is reported as “+0.85”.

The record behind these values is article PMC8335727 (Inorganic Chemistry, 2021).
